For 19 compounds, IC50 results are on record in patent publication US20250179073A1, “TRICYCLIC HETEROCYCLE COMPOUNDS AS IAP ANTAGONISTS” (Ascentage Pharma (Suzhou) Co., Ltd., priority 2022, published 2025).

The experiment deals with MDA-MB-231 cells. In words: Cell proliferation assay (CellTiter-Glo), MDA-MB-231. The experiment is classed as cell-based. To be noted: 72 h treatment, Celltiter-Glo luminescence. As to the method: Example 238: Cell Proliferation Assay
MDA-MB-231 and EVSA-T cells (10000 cells/well) were plated onto 96-well plates (Corning, Cat #3917) in 95 μL of medium (RPMI-1640 containing 10% FBS and MEM containing 10% FBS, respectively). Compounds with various concentrations ([…]) were added to the wells. After treatment for 72 h, 30 μL of Celltiter-Glo reagent (Promega, Cat #G7573) was added and incubated at room temperature for 15 min, then the luminescent signal was determined using a microplate reader (Biotek, SynergyH1). The inhibitor dose-response curves were analyzed using normalized IC50 regression curve fitting with control based normalization.

Regarding `CCc1nnc2c(Cc3ccc(F)cc3)cc3c(n12)C(C)(C)CN3C(=O)CN1C[C@@H](C)NC[C@@H]1CN1CCOC[C@H]1C` [Compound 172, 1-(1-ethyl-4-(4-fluorobenzyl)-8,8-dimethyl-7,8-dihydro-6H-pyrrolo[2,3-e][1,2,4]triazolo[4,3-a]pyridin-6-yl)-2-((2R,5R)-5-methyl-2-(((R)-3-methylmorpholino)methyl)piperazin-1-yl)ethan-1-one], where the note is “Homo sapiens, MDA-MB-231, 72 h”, the IC50 came to 610 nM.
`CNC(=O)c1nc2c(Cc3ccc(F)cc3)cc3c(n2n1)C(C)(C)CN3C(=O)CN1C[C@@H](C)NC[C@@H]1CN1CCOC[C@H]1C` [Compound 255, 4-(4-fluorobenzyl)-N,8,8-trimethyl-6-(2-((2R,5R)-5-methyl-2-(((R)-3-methylmorpholino)methyl)piperazin-1-yl)acetyl)-7,8-dihydro-6H-pyrrolo[2,3-e][1,2,4]triazolo[1,5-a]pyridine-2-carboxamide]: the IC50 (Homo sapiens, MDA-MB-231, 72 h) amounted to 580 nM.
On the same count and under the same terms, the same measure for `C[C@@H]1CN(CC(=O)N2CC(C)(C)c3c2cc(Cc2ccc(F)cc2)c2ncnn32)[C@@H](CN2CCN(C(N)=O)C[C@H]2C)CN1` [Compound 215, (R)-4-(((2R,5R)-1-(2-(4-(4-fluorobenzyl)-8,8-dimethyl-7,8-dihydro-6H-pyrrolo[2,3-e][1,2,4]triazolo[1,5-a]pyridin-6-yl)-2-oxoethyl)-5-methylpiperazin-2-yl)methyl)-3-methylpiperazine-1-carboxamide]: 430 nM.
On the same count and under the same terms, the same measure for `C[C@@H]1CN(CC(=O)N2CC(C)(C)c3c2cc(Cc2ccc(F)cc2)c2nn(C4CNC4)c(=O)n32)[C@@H](CN2CCOC[C@H]2C)CN1` [Compound 249, 2-(azetidin-3-yl)-4-(4-fluorobenzyl)-8,8-dimethyl-6-(2-((2R,5R)-5-methyl-2-(((R)-3-methylmorpholino)methyl)piperazin-1-yl)acetyl)-2,6,7,8-tetrahydro-1H-pyrrolo[2,3-e][1,2,4]triazolo[4,3-a]pyridin-1-one]: 41 nM; for `C[C@@H]1CN(CC(=O)N2CC(C)(C)c3c2cc(N2CCCc4cc(F)ccc42)c2ncnn32)[C@@H](CN2CCOC[C@H]2C)CN1` [Compound 168, 1-(4-(6-fluoro-3,4-dihydroquinolin-1(2H)-yl)-8,8-dimethyl-7,8-dihydro-6H-pyrrolo[2,3-e][1,2,4]triazolo[1,5-a]pyridin-6-yl)-2-((2R,5R)-5-methyl-2-(((R)-3-methylmorpholino)methyl)piperazin-1-yl)ethan-1-one]: 190 nM.
In the case of `C[C@@H]1CN(CC(=O)N2CC(C)(C)c3c2cc(N2CCOc4cc(F)ccc42)c2ncnn32)[C@@H](CN2CCOC[C@H]2C)CN1` [Compound 169, 1-(4-(7-fluoro-2,3-dihydro-4H-benzo[b][1,4]oxazin-4-yl)-8,8-dimethyl-7,8-dihydro-6H-pyrrolo[2,3-e][1,2,4]triazolo[1,5-a]pyridin-6-yl)-2-((2R,5R)-5-methyl-2-(((R)-3-methylmorpholino)methyl)piperazin-1-yl)ethan-1-one], where the note is “Homo sapiens, MDA-MB-231, 72 h”, the IC50 turned out to be 980 nM.
The same measure, in the same setting: the value for `C[C@@H]1CN(CC(=O)N2CC(C)(C)c3c2cc(Cc2ccc(F)cc2)n2ccnc32)[C@@H](CN2CCOC[C@H]2C)CN1` [Example 24, 1-(5-(4-fluorobenzyl)-9,9-dimethyl-8,9-dihydro-7H-imidazo[1,2-a]pyrrolo[3,2-c]pyridin-7-yl)-2-((2R,5R)-5-methyl-2-(((R)-3-methylmorpholino)methyl)piperazin-1-yl)ethan-1-one] was 240 nM; that for `C[C@@H]1CN(CC(=O)N2CC(C)(C)c3c2cc(Cc2ccc(F)cc2)c2nc(C(F)(F)F)cn32)[C@@H](CN2CCOCC2(C)C)CN1` [Compound 146, 2-((2R,5R)-2-((3,3-dimethylmorpholino)methyl)-5-methylpiperazin-1-yl)-1-(4-(4-fluorobenzyl)-8,8-dimethyl-2-(trifluoromethyl)-7,8-dihydro-6H-imidazo[1,2-a]pyrrolo[2,3-e]pyridin-6-yl)ethan-1-one] was 270 nM.
On the same count and under the same terms, the value for `C[C@@H]1CN(CC(=O)N2CC(C)(C)c3c2cc(Cc2ccc(F)cc2)c2nc(N4CC(C)(O)C4)nn32)[C@@H](CN2CCOC[C@H]2C)CN1` [Compound 170, 1-(4-(4-fluorobenzyl)-2-(3-hydroxy-3-methylazetidin-1-yl)-8,8-dimethyl-7,8-dihydro-6H-pyrrolo[2,3-e][1,2,4]triazolo[1,5-a]pyridin-6-yl)-2-((2R,5R)-5-methyl-2-(((R)-3-methylmorpholino)methyl)piperazin-1-yl)ethan-1-one] was 99 nM; that for `C[C@@H]1CN(CC(=O)N2CC(C)(C)c3c2cc(Cc2ccc(F)cc2)c2cc(C(F)(F)F)nn32)[C@@H](CN2CCOC[C@H]2C)CN1` [Compound 150, 1-(4-(4-fluorobenzyl)-8,8-dimethyl-2-(trifluoromethyl)-7,8-dihydro-6H-pyrazolo[1,5-a]pyrrolo[2,3-e]pyridin-6-yl)-2-((2R,5R)-5-methyl-2-(((R)-3-methylmorpholino)methyl)piperazin-1-yl)ethan-1-one] was 490 nM; that for `C[C@@H]1CN(CC(=O)N2CC(C)(C)c3c2cc(Cc2ccc(F)cc2)c2nc(C(F)(F)F)cn32)[C@@H](CN2CCN(S(C)(=O)=O)C[C@H]2C)CN1` [Compound 178, 1-(4-(4-fluorobenzyl)-8,8-dimethyl-2-(trifluoromethyl)-7,8-dihydro-6H-imidazo[1,2-a]pyrrolo[2,3-e]pyridin-6-yl)-2-((2R,5R)-5-methyl-2-(((R)-2-methyl-4-(methylsulfonyl)piperazin-1-yl)methyl)piperazin-1-yl)ethan-1-one] was 490 nM.
Same read-out and setting: the value for `C[C@@H]1CN(CC(=O)N2CC(C)(C)c3c2cc(Cc2ccc(F)cc2)c2nn(CC(C)(C)O)c(=O)n32)[C@@H](CN2C3CCC2COC3)CN1` [Compound 276, 6-(2-((2R,5R)-2-((3-oxa-8-azabicyclo[3.2.1]octan-8-yl)methyl)-5-methylpiperazin-1-yl)acetyl)-4-(4-fluorobenzyl)-2-(2-hydroxy-2-methylpropyl)-8,8-dimethyl-2,6,7,8-tetrahydro-1H-pyrrolo[2,3-e][1,2,4]triazolo[4,3-a]pyridin-1-one] was 390 nM; that for `C[C@@H]1CN(CC(=O)N2CC(C)(C)c3c2cc(Cc2ccc(F)cc2)c2nnc(C(F)F)n32)[C@@H](CN2CCOC[C@H]2C)CN1` [Compound 157, 1-(1-(difluoromethyl)-4-(4-fluorobenzyl)-8,8-dimethyl-7,8-dihydro-6H-pyrrolo[2,3-e][1,2,4]triazolo[4,3-a]pyridin-6-yl)-2-((2R,5R)-5-methyl-2-(((R)-3-methylmorpholino)methyl)piperazin-1-yl)ethan-1-one] was 200 nM; that for `C[C@@H]1CN(CC(=O)N2CC(C)(C)c3c2cc(Cc2ccc(F)cc2)c2ncnn32)[C@@H](CN2CCN(C)C(=O)[C@H]2C)CN1` [Compound 205, (R)-4-(((2R,5R)-1-(2-(4-(4-fluorobenzyl)-8,8-dimethyl-7,8-dihydro-6H-pyrrolo[2,3-e][1,2,4]triazolo[1,5-a]pyridin-6-yl)-2-oxoethyl)-5-methylpiperazin-2-yl)methyl)-1,3-dimethylpiperazin-2-one] was 7080 nM.
With `C[C@@H]1CN(CC(=O)N2CC(C)(C)c3c2cc(Cc2ccc(F)cc2F)c2nncn32)[C@@H](CN2CCOC[C@H]2C)CN1` [Compound 155, 1-(4-(2,4-difluorobenzyl)-8,8-dimethyl-7,8-dihydro-6H-pyrrolo[2,3-e][1,2,4]triazolo[4,3-a]pyridin-6-yl)-2-((2R,5R)-5-methyl-2-(((R)-3-methylmorpholino)methyl)piperazin-1-yl)ethan-1-one], the IC50 (Homo sapiens, MDA-MB-231, 72 h) was determined as 720 nM.
With `C[C@@H]1CN(CC(=O)N2CC(C)(C)c3c2cc(Cc2ccc(F)cc2)c2cnc(C4CC4)n32)[C@@H](CN2CCOC[C@H]2C)CN1` [Compound 3, 1-(1-cyclopropyl-4-(4-fluorobenzyl)-8,8-dimethyl-7,8-dihydro-6H-imidazo[1,5-a]pyrrolo[2,3-e]pyridin-6-yl)-2-((2R,5R)-5-methyl-2-(((R)-3-methylmorpholino)methyl)piperazin-1-yl)ethan-1-one], the IC50 (Homo sapiens, MDA-MB-231, 72 h) came out at 59 nM.
On the same count and under the same terms, the same measure for `C[C@@H]1CN(CC(=O)N2CC(C)(C)c3c2cc(N2CCN(C)c4cc(F)ccc42)c2ncnn32)[C@@H](CN2CCOC[C@H]2C)CN1` [Compound 194, 1-(4-(6-fluoro-4-methyl-3,4-dihydroquinoxalin-1(2H)-yl)-8,8-dimethyl-7,8-dihydro-6H-pyrrolo[2,3-e][1,2,4]triazolo[1,5-a]pyridin-6-yl)-2-((2R,5R)-5-methyl-2-(((R)-3-methylmorpholino)methyl)piperazin-1-yl)ethan-1-one]: 680 nM.
Turning to `C[C@@H]1CN(CC(=O)N2CC(C)(C)c3c2cc(Cc2ccc(F)cc2)c2nc(N4C[C@@H](O)[C@H](O)C4)nn32)[C@@H](CN2CCOC[C@H]2C)CN1` [Compound 226, 1-(2-((3R,4R)-3,4-dihydroxypyrrolidin-1-yl)-4-(4-fluorobenzyl)-8,8-dimethyl-7,8-dihydro-6H-pyrrolo[2,3-e][1,2,4]triazolo[1,5-a]pyridin-6-yl)-2-((2R,5R)-5-methyl-2-(((R)-3-methylmorpholino)methyl)piperazin-1-yl)ethan-1-one], the IC50 amounted to 530 nM.
For `C[C@@H]1CN(CC(=O)N2CC(C)(C)c3c2cc(Cc2ccc(F)cc2)c2nn(CC(C)(C)O)c(=O)n32)[C@@H](CN2CCOCC2(C)C)CN1` [Compound 277, 6-(2-((2R,5R)-2-((3,3-dimethylmorpholino)methyl)-5-methylpiperazin-1-yl)acetyl)-4-(4-fluorobenzyl)-2-(2-hydroxy-2-methylpropyl)-8,8-dimethyl-2,6,7,8-tetrahydro-1H-pyrrolo[2,3-e][1,2,4]triazolo[4,3-a]pyridin-1-one], where the note is “Homo sapiens, MDA-MB-231, 72 h”, the IC50 turned out to be 67 nM.
